Laboratory results published in ChEMBL document CHEMBL1149702, “Toward novel HIV-1 integrase binding inhibitors: molecular modeling, synthesis, and biological studies” (Bioorg Med Chem Lett, 2007).

Molecular target: Human immunodeficiency virus type 1 integrase (Human immunodeficiency virus 1, UniProt Q7ZJM1)
Test: Inhibition of HIV1 integrase

Human immunodeficiency virus type 1 integrase, sequence (Q7ZJM1 whole entry): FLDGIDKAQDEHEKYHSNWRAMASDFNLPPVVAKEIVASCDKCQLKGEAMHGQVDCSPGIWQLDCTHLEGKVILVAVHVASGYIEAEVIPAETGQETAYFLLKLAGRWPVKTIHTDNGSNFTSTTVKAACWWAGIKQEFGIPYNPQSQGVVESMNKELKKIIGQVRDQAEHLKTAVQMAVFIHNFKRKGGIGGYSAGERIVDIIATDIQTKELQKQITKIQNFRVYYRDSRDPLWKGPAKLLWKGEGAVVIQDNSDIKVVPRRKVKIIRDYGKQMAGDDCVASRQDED

| IC50 | Compound |
| --- | --- |
| > 268 µM | N#C/C(=C\c1ccc(-c2cccc([N+](=O)[O-])c2)o1)c1nc2ccccc2s1 |
| 36.2 µM | Cc1ccc2[nH]c(C(C#N)=Cc3ccc(-c4ccc(Cl)cc4C(=O)O)o3)nc2c1 |
| 12 µM | O=[N+]([O-])c1cccc(-c2ccc(/C=C/c3nc4ccccc4[nH]3)o2)c1 |
| 39.8 µM | Cc1ccc(C(=O)O)cc1-c1ccc(C=C(C#N)c2nc3ccccc3[nH]2)o1 |
| 68.7 µM | N#CC(=Cc1ccc(-c2ccc(O)c(C(=O)O)c2)o1)c1nc2ccccc2[nH]1 |
| 58.7 µM | N#CC(=Cc1ccc(-c2cc([N+](=O)[O-])ccc2Cl)o1)c1nc2ccccc2[nH]1 |
| > 232 µM | N#C/C(=C\c1ccc(-c2c(Cl)cccc2C(F)(F)F)o1)c1nc2ccccc2s1 |
| > 257 µM | FC(F)(F)c1cccc(Cl)c1-c1ccc(/C=C/c2nc3ccccc3[nH]2)o1 |
| > 289 µM | N#CC(=Cc1ccc(-c2ccc(Cl)cc2)o1)c1nc2ccccc2[nH]1 |
| > 244 µM | NC(=O)/C(=C\c1ccc(-c2ccc(Cl)cc2[N+](=O)[O-])o1)c1nc2ccccc2[nH]1 |
| > 281 µM | N#CC(=Cc1ccc(-c2ccccc2[N+](=O)[O-])o1)c1nc2ccccc2[nH]1 |
| 164 µM | N#CC(=Cc1ccc(-c2cccc(C(=O)O)c2)o1)c1nc2ccccc2[nH]1 |
| > 281 µM | N#CC(=Cc1ccc(-c2cccc([N+](=O)[O-])c2)o1)c1nc2ccccc2[nH]1 |
| > 291 µM | COc1c(C)cc(-c2ccc(/C=C/c3nc4ccccc4[nH]3)o2)cc1C |
| > 302 µM | O=[N+]([O-])c1ccccc1-c1ccc(/C=C/c2nc3ccccc3[nH]2)o1 |
| > 281 µM | N#CC(=Cc1ccc(-c2ccc(C(=O)O)cc2)o1)c1nc2ccccc2[nH]1 |
| > 271 µM | COc1c(C)cc(-c2ccc(C=C(C#N)c3nc4ccccc4[nH]3)o2)cc1C |
| > 241 µM | N#C/C(=C\c1ccc(-c2c(Cl)cccc2C(F)(F)F)o1)c1nc2ccccc2o1 |
| > 280 µM | N#C/C(=C\c1ccc(-c2cccc([N+](=O)[O-])c2)o1)c1nc2ccccc2o1 |
| > 290 µM | Cc1c(-c2ccc(/C=C/c3nc4ccccc4[nH]3)o2)cccc1[N+](=O)[O-] |
| 31.3 µM | N#CC(=Cc1ccc(-c2cc(C(F)(F)F)ccc2Cl)o1)c1nc2ccccc2[nH]1 |
| > 235 µM | CC(C)(C)OC(=O)Nc1ccc(-c2ccc(C=C(C#N)c3nc4ccccc4[nH]3)o2)cc1 |
| > 268 µM | N#CC(=Cc1ccc(-c2ccc(F)cc2C(=O)O)o1)c1nc2ccccc2[nH]1 |
| > 245 µM | N#C/C(=C\c1ccc(-c2ccc(Cl)cc2[N+](=O)[O-])o1)c1nc2ccccc2s1 |
| 90.4 µM | N#CC(=Cc1ccc(-c2ccc(Cl)c(C(=O)O)c2)o1)c1nc2ccccc2[nH]1 |
| > 263 µM | C/C(=C\c1ccc(-c2ccc(Cl)cc2[N+](=O)[O-])o1)c1nc2ccccc2[nH]1 |
| 70.3 µM | N#CC(=Cc1ccc(-c2ccc(C(=O)O)c(O)c2)o1)c1nc2ccccc2[nH]1 |
| > 273 µM | O=[N+]([O-])c1cc(Cl)ccc1-c1ccc(/C=C/c2nc3ccccc3[nH]2)o1 |
| > 292 µM | COc1ccc(-c2ccc(C=C(C#N)c3nc4ccccc4[nH]3)o2)cn1 |
| 85.8 µM | Cc1c(-c2ccc(C=C(C#N)c3nc4ccccc4[nH]3)o2)cccc1[N+](=O)[O-] |
